From patent publication US20150322051A1, “Macrocyclic picolinamides as fungicides” (Dow AgroSciences LLC, priority 2014, published 2015)
Like-named read-outs stand apart in the source and are kept apart here.

Assays:
[1] = tested on: Puccinia triticina; synonym: Puccinia recondita f. sp. tritici (PUCCRT); assay: Wheat brown rust (PUCCRT) whole-plant fungicidal test; type: in vivo; conditions: topical; for pest or weed control at 121.5 g/ha: low volume (track spray) application, 121.5 g/H; for pest or weed control at 100 ppm: high volume application
[2] = tested on: Mycosphaerella graminicola; anamorph: Septoria tritici (SEPTTR); assay: Leaf blotch of wheat (SEPTTR) whole-plant fungicidal test; type: in vivo; conditions: Zymoseptoria tritici, topical; for pest or weed control at 121.5 g/ha: low volume (track spray) application, 121.5 g/H; for pest or weed control at 100 ppm: high volume application
[3] = 24 h, 1 Day Protectant, read-out: Low Volume activity at 121.5 g/H PUCCRT 1DP (% disease control rating)
[4] = 72 h, 3 Day Curative, read-out: Low Volume activity at 121.5 g/H PUCCRT 3DC (% disease control rating)
[5] = 24 h, 1 Day Protectant, read-out: Low Volume activity at 121.5 g/H SEPTTR 1DP (% disease control rating)
[6] = 72 h, 3 Day Curative, read-out: Low Volume activity at 121.5 g/H SEPTTR 3DC (% disease control rating)
[7] = 24 h, 1 Day Protectant, read-out: High Volume activity at 100 ppm PUCCRT 1DP (% disease control rating)
[8] = 72 h, 3 Day Curative, read-out: High Volume activity at 100 ppm PUCCRT 3DC (% disease control rating)
[9] = 24 h, 1 Day Protectant, read-out: High Volume activity at 100 ppm SEPTTR 1DP (% disease control rating)
[10] = 72 h, 3 Day Curative, read-out: High Volume activity at 100 ppm SEPTTR 3DC (% disease control rating)

Structure (SMILES) | melting point | pest or weed control at 121.5 g/ha [1, 3] | pest or weed control at 121.5 g/ha [1, 4] | pest or weed control at 121.5 g/ha [2, 5] | pest or weed control at 121.5 g/ha [2, 6] | pest or weed control at 100 ppm [1, 7] | pest or weed control at 100 ppm [1, 8] | pest or weed control at 100 ppm [2, 9] | pest or weed control at 100 ppm [2, 10]
C[C@@H]1OC(=O)[C@@H](NC(=O)OC(C)(C)C)CCC[C@H](Cc2ccc(C(F)(F)F)cc2)[C@H]1Cc1ccc(OC(F)(F)F)cc1 [Compound 152] | 65 to 67 °C |  |  |  |  |  |  |  | 
COc1ccnc(C(=O)N[C@H]2CCC[C@H](Cc3ccccc3)[C@@H](CC(C)C)[C@H](C)OC2=O)c1OCOC(C)=O [Compound 14] | 60 to 64 °C | > 70% | < 70% | > 70% | > 70% |  |  |  | 
COc1ccnc(C(=O)N[C@H]2CCC[C@H](Cc3ccc(Cl)cc3)[C@@H](Cc3ccccc3)[C@H](C)OC2=O)c1OCOC(C)=O [Compound 19] | 98 to 100 °C | > 70% | < 70% | > 70% | > 70% |  |  |  | 
COc1ccnc(C(=O)N[C@H]2CCC[C@H](Cc3ccccc3)[C@@H](CC(C)C)[C@H](C)OC2=O)c1O [Compound 77] | 73 to 76 °C |  |  |  |  |  |  |  | 
C[C@@H]1OC(=O)[C@@H](N)CCC[C@H](CCCc2ccccc2)[C@H]1Cc1ccc(OC(F)(F)F)cc1.Cl | 227 to 232 °C |  |  |  |  |  |  |  | 
CC(C)C[C@@H]1[C@@H](Cc2ccccc2)CCC[C@H](N)C(=O)O[C@H]1C.Cl | 221 to 224 °C |  |  |  |  |  |  |  | 
C[C@@H]1OC(=O)[C@@H](N)CCC[C@H](Cc2ccc(C(F)(F)F)cc2)[C@H]1Cc1ccc(OC(F)(F)F)cc1.Cl | 215 to 217 °C |  |  |  |  |  |  |  | 
C[C@@H]1OC(=O)[C@@H](N)CCC[C@H](Cc2ccccc2)[C@H]1Cc1ccc(OC(F)(F)F)cc1.Cl | 196 to 198 °C |  |  |  |  |  |  |  | 
COc1ccnc(C(=O)N[C@H]2CCC[C@H](Cc3ccccc3)[C@@H](Cc3ccc(F)cc3)[C@H](C)OC2=O)c1OCOC(C)=O [Compound 63] |  | > 70% | < 70% | > 70% | > 70% |  |  |  | 
COc1ccnc(C(=O)N[C@H]2CCC[C@H](Cc3ccccc3)[C@@H](c3ccccc3)[C@H](C)OC2=O)c1OC(C)=O [Compound 53] |  | > 70% | < 70% | > 70% | > 70% |  |  |  | 
COc1ccnc(C(=O)N[C@H]2CCC[C@H](CCC(C)C)[C@@H](Cc3ccccc3)[C@H](C)OC2=O)c1OC(C)=O [Compound 4] |  | > 70% | < 70% | > 70% | > 70% |  |  |  | 
COc1ccnc(C(=O)N[C@H]2CCC[C@H](Cc3ccccc3)[C@@H](Cc3ccc(F)cc3)[C@H](C)OC2=O)c1O [Compound 95] |  | > 70% | < 70% | > 70% | > 70% |  |  |  | 
COc1ccnc(C(=O)N[C@H]2CCC[C@H](CCCc3ccccc3)[C@@H](Cc3ccc(OC(F)(F)F)cc3)[C@H](C)OC2=O)c1O [Compound 93] | 49 to 53 °C |  |  |  |  | < 70% | < 70% | < 70% | < 70%
COc1ccnc(C(=O)N[C@H]2CCC[C@H](CCCc3ccccc3)[C@@H](Cc3ccccc3)[C@H](C)OC2=O)c1O [Compound 98] |  |  |  |  |  | > 70% | < 70% | > 70% | > 70%
COc1ccnc(C(=O)N[C@H]2CCC[C@H](Cc3ccccc3)[C@@H](c3ccccc3)[C@H](C)OC2=O)c1O [Compound 90] |  |  |  |  |  | > 70% | > 70% | > 70% | > 70%
COc1ccnc(C(=O)N[C@H]2CCC[C@H](Cc3ccccc3)[C@@H](CCc3ccccc3)[C@H](C)OC2=O)c1OCOC(=O)C(C)C [Compound 17] |  | > 70% | < 70% | > 70% | > 70% |  |  |  | 
COc1ccnc(C(=O)N[C@H]2CCC[C@H](Cc3ccc(C(F)(F)F)cc3)[C@@H](Cc3ccccc3)[C@H](C)OC2=O)c1OC(C)=O [Compound 25] |  | < 70% | < 70% | < 70% | < 70% |  |  |  | 
COc1ccnc(C(=O)N[C@H]2CCC[C@H](Cc3ccccc3)[C@@H](Cc3ccc(F)cc3)[C@H](C)OC2=O)c1OCOC(=O)C(C)C [Compound 64] |  | > 70% | < 70% | > 70% | > 70% |  |  |  | 
COc1ccnc(C(=O)N[C@H]2CCC[C@H](Cc3ccc(C(F)(F)F)cc3)[C@@H](Cc3ccc(OC(F)(F)F)cc3)[C@H](C)OC2=O)c1OC(C)=O [Compound 67] |  | < 70% | < 70% | < 70% | < 70% |  |  |  | 
CCCC[C@@H]1[C@@H](Cc2ccccc2)CCC[C@H](NC(=O)c2nccc(OC)c2OC(C)=O)C(=O)O[C@H]1C [Compound 1, 2-(((3S,7R,8R,9S)-7-benzyl-8-butyl-9-methyl-2-oxooxonan-3-yl)carbamoyl)-4-methoxypyridin-3-yl acetate] |  | > 70% | < 70% | > 70% | > 70% | > 70% | > 70% | > 70% | > 70%
CCC[C@H]1CCC[C@H](NC(=O)c2nccc(OC)c2OCOC(C)=O)C(=O)O[C@@H](C)[C@@H]1Cc1ccccc1 [Compound 37] |  | > 70% | > 70% | > 70% | > 70% |  |  |  | 
COc1ccnc(C(=O)N[C@H]2CCC[C@H](CCCc3ccccc3)[C@@H](Cc3ccccc3)[C@H](C)OC2=O)c1OCOC(C)=O [Compound 70] |  | > 70% | < 70% | > 70% | > 70% |  |  |  | 
COc1ccnc(C(=O)N[C@H]2CCC[C@H](CCCc3ccccc3)[C@@H](Cc3ccc(OC(F)(F)F)cc3)[C@H](C)OC2=O)c1OC(C)=O [Compound 57] |  | < 70% | < 70% | < 70% | < 70% |  |  |  | 
COc1ccnc(C(=O)N[C@H]2CCC[C@H](Cc3ccc(C(F)(F)F)cc3)[C@@H](CC(C)C)[C@H](C)OC2=O)c1OCOC(=O)C(C)C [Compound 24] |  | < 70% | < 70% | > 70% | < 70% |  |  |  | 
COc1ccnc(C(=O)N[C@H]2CCC[C@H](CCC(C)C)[C@@H](CCc3ccccc3)[C@H](C)OC2=O)c1OC(C)=O [Compound 36] |  | > 70% | < 70% | > 70% | > 70% |  |  |  | 
COc1ccnc(C(=O)N[C@H]2CCC[C@H](CCC(C)C)[C@@H](C3CCCC3)[C@H](C)OC2=O)c1O [Compound 87] |  |  |  |  |  | > 70% | < 70% | > 70% | < 70%
COc1ccnc(C(=O)N[C@H]2CCC[C@H](Cc3ccc(Cl)cc3)[C@@H](C3CCCC3)[C@H](C)OC2=O)c1O [Compound 84] |  |  |  |  |  | > 70% | < 70% | > 70% | > 70%
COc1ccnc(C(=O)N[C@H]2CCC[C@H](Cc3ccc(C(F)(F)F)cc3)[C@@H](Cc3ccccc3)[C@H](C)OC2=O)c1OCOC(C)=O [Compound 26] |  | > 70% | < 70% | > 70% | < 70% |  |  |  | 
